This is an account of results in PubChem BioAssay AID1996.

Converted amounts (≈) assume the structure as drawn.

The conditions of this data set: buffer; pH 7.4; 200.0 µM.
Take `COc1c(C)cc(S(=O)(=O)N2CCOCC2)c(C)c1C`: the kinetic solubility – broadly, the concentration staying in solution when a stock, usually in DMSO, is diluted into the medium – is greater than 44.9 µg/mL.

With `CC(C)CCC1(C)NC(=O)N(CC(=O)c2ccc[nH]2)C1=O` (configuration not stated), the solubility (kinetic) amounted to 36.1 µg/mL (≈ 124 µM).

As to `O=C(CSc1n[nH]c(=O)n1C1CC1)Nc1ccccc1`, the kinetic solubility was greater than 43.6 µg/mL.

With `N=C1SC(CC(=O)Nc2ccccc2[N+](=O)[O-])C(=O)N1c1ccccc1` (configuration not stated), the solubility (kinetic) worked out at 0.2 µg/mL (≈ 0.54 µM).

For `Cc1ccc2cc(/C=N/NC(=O)CN3CCCCC3)c(Cl)nc2c1`, the solubility (kinetic) is greater than 51.7 µg/mL.

`COc1ccc(CN2CCSc3sccc3C2=O)cc1` gave a kinetic solubility greater than 45.8 µg/mL.

Take `O=C(O)CC1SC(=O)N(CC(=O)c2ccccc2)C1=O` (configuration not stated): the kinetic solubility was greater than 44 µg/mL.

As for `CN(C)c1ccc(C(O)Cc2nc3ccccc3n2C)cc1` (configuration not stated), the solubility (kinetic) was 12.1 µg/mL (≈ 41 µM).

With `O=C(c1ccccc1)N1CCN(C(=O)c2cccnc2)CC1`, the solubility (kinetic) was greater than 44.3 µg/mL.

`COc1ccccc1C(=O)NNC(=O)C(=O)NC(C)C` had a solubility (kinetic) greater than 41.9 µg/mL.

As for `O=C(O)C1CCN(C(=O)c2csc(-c3ccc4c(c3)CCO4)n2)CC1`, the kinetic solubility was greater than 53.8 µg/mL.

With `COc1ccc(C)cc1N(CC(=O)N1CCOCC1)S(C)(=O)=O`, the kinetic solubility was greater than 51.4 µg/mL.

Compound `CCOc1ccccc1NC(=O)/C(C#N)=C/c1cccnc1` came in with a solubility (kinetic) of 18.8 µg/mL (≈ 64.1 µM).

On to `Cn1c(=O)c2ccccc2n(CC(=O)NCCC2=CCCCC2)c1=O`, for which the solubility (kinetic) was 14.6 µg/mL (≈ 42.8 µM). The solubility kinetic values of the last two compounds are within 1.5-fold of each other.

The compound `O=C(CN1CCOCC1)Nc1nc2ccc(Cl)cc2s1` gave a solubility (kinetic) of 45.8 µg/mL (≈ 147 µM). This solubility kinetic is about 3.1-fold higher than that of the compound before.

With `CC(NC(=O)c1ccccc1Cl)C1CC2CCC1C2` (configuration not stated), the kinetic solubility was determined as 19.7 µg/mL (≈ 70.9 µM).

On to `CSc1cccc(N2CC(C(=O)N3CCN(S(=O)(=O)c4ccccc4Cl)CC3)CC2=O)c1` (configuration not stated), for which the kinetic solubility came to 23.2 µg/mL (≈ 47 µM). This solubility kinetic and that of the compound before are within 1.5-fold of each other.

The compound `O=C(CN1CCCC1)Nc1ccc([N+](=O)[O-])cc1` showed a solubility (kinetic) greater than 37.4 µg/mL.

As to `COc1ccccc1CNC(=O)COc1cccnc1[N+](=O)[O-]`, the kinetic solubility was greater than 47.6 µg/mL.

Regarding `COc1ccc(NC(=S)NC(=O)Cc2ccccc2)cc1`, the kinetic solubility was determined as 19.2 µg/mL (≈ 63.9 µM).

`O=C(CC1NCCNC1=O)NC1Cc2ccccc2C1` (configuration not stated) yielded a solubility (kinetic) greater than 41 µg/mL.

The compound `O=C(CC(=O)c1ccccc1)Nc1ccccc1C(F)(F)F` came in with a solubility (kinetic) of 43.7 µg/mL (≈ 142 µM).

In turn, `O=C(Nc1ccc(Cl)c(Cl)c1)N1CCOCC1` gave a kinetic solubility greater than 41.3 µg/mL.

Regarding `CCOc1ccc(Br)cc1S(=O)(=O)Nc1ccc(S(=O)(=O)Nc2cc(C)on2)cc1`, the solubility (kinetic) amounted to 9.3 µg/mL (≈ 18 µM).

`COc1ccc(-c2nc3n(c(=O)c2C#N)CCS3)c(OC)c1` displayed a solubility (kinetic) greater than 47.3 µg/mL.

`CC(NC(=O)c1ccccc1F)C1CC1` (configuration not stated) returned a kinetic solubility greater than 31.1 µg/mL.

The compound `COc1ccc(CC(=O)NCc2ccccc2)cc1OC` returned a solubility (kinetic) greater than 42.8 µg/mL.

In turn, `N#CCCN(C(=O)COC(=O)c1cc(=O)[nH]c2ccccc12)c1ccccc1` registered a kinetic solubility greater than 56.3 µg/mL.

In turn, `O=S(=O)(Nc1nccs1)c1ccc(F)cc1` displayed a kinetic solubility greater than 38.7 µg/mL.

The compound `O=C(CN1C(=O)CNC1=O)Nc1ccc(Cl)cc1` registered a solubility (kinetic) greater than 40.2 µg/mL.

The compound `Cc1cc(N2CCCC2)nc2ccccc12` came in with a solubility (kinetic) of 31.6 µg/mL (≈ 149 µM).

Take `Nc1nc2c(ccc3ccccc32)s1`: the kinetic solubility is 27.4 µg/mL (≈ 137 µM). This solubility kinetic and that of the compound before are within 1.5-fold of each other.

In turn, `C=CCN=C1CC(C)(C)C(C(=O)OC)C(O)=C1C(=O)CCC` (configuration not stated) came in with a solubility (kinetic) greater than 46.1 µg/mL.

`CCOC(=O)C1CCCCN1Cc1cccc(Oc2ccccc2)c1` (configuration not stated) yielded a kinetic solubility of less than 0.7 µg/mL.

The compound `COc1ccc(C(OC(=O)c2ccco2)C(=O)NC2CCCC2)cc1` (configuration not stated) displayed a solubility (kinetic) of 3.4 µg/mL (≈ 9.9 µM).

Compound `COCc1c(C(=O)N2CCc3ccccc32)oc2ccccc12` came in with a kinetic solubility of 7.6 µg/mL (≈ 24.7 µM).

For the compound `COC(=O)C(Cc1ccc(O)cc1)NC(=O)NC12CC3CC(CC(C3)C1)C2` (configuration not stated), the kinetic solubility turned out to be 27.5 µg/mL (≈ 73.8 µM).

The compound `CC(=O)COC(=O)C1=NN(c2ccccc2)C(=O)CC1` registered a kinetic solubility greater than 41.1 µg/mL.

As for `O=C1/C(=C/c2ccccn2)SC(=S)N1c1ccc(O)cc1`, the kinetic solubility stood at 0.5 µg/mL (≈ 1.59 µM).

`Cc1cc(C)nc(N2CCCC(C(=O)NC3CC3)C2)n1` (configuration not stated) returned a solubility (kinetic) greater than 41.2 µg/mL.

As to `CCC(=O)OCC(=O)Nc1cc(S(=O)(=O)N(C)C)ccc1Cl`, the solubility (kinetic) was determined as 46 µg/mL (≈ 132 µM).

`Fc1cccc(Nc2ncnc3sccc23)c1` displayed a kinetic solubility of 5.7 µg/mL (≈ 23.2 µM).

`COCCSc1ccccc1C(=O)N1CCc2ccccc2C1` came in with a kinetic solubility greater than 49.1 µg/mL.

`NS(=O)(=O)c1ccc(CCNc2ccccc2[N+](=O)[O-])cc1` gave a solubility (kinetic) of 2.9 µg/mL (≈ 9.02 µM).

The compound `CC(NC(=O)COC(=O)COc1ccc(Cl)cc1)c1ccccc1` (configuration not stated) displayed a solubility (kinetic) of 40.2 µg/mL (≈ 116 µM). Against the preceding compound, the solubility kinetic is about 14-fold higher.

Consider `O=C(O)CN1C(=O)c2ccc(C(=O)c3ccccc3)cc2C1=O`, for which the solubility (kinetic) was 45.8 µg/mL (≈ 148 µM).

With `CC(NC(=S)Nc1ccccc1C(F)(F)F)C1CC2CCC1C2` (configuration not stated), the kinetic solubility stood at 2.1 µg/mL (≈ 6.13 µM).

As to `Cc1cccc(NC(=S)NCC(C)CSc2ccc(Cl)cc2)c1` (configuration not stated), the kinetic solubility was less than 0.4 µg/mL.

`Cc1ccsc1C(=O)N1CC=C(c2ccccc2)CC1` registered a solubility (kinetic) greater than 42.5 µg/mL.

Regarding `Cc1ccc(S(=O)(=O)N(C)C)cc1NC(=O)C(C)OC(=O)c1cc[n+]([O-])cc1` (configuration not stated), the kinetic solubility is greater than 61.1 µg/mL.

`CCOc1ccccc1NC(=O)c1ccc2nc[nH]c2c1` registered a kinetic solubility greater than 42.2 µg/mL.

In turn, `C=CCn1c(SCC(C)=O)nnc1-c1ccc2ncccc2c1` had a solubility (kinetic) greater than 48.7 µg/mL.
